From patent US20060205743A1, “Protein kinase inhibitors” (priority 2003, published 2006)

Target: MAPKAP-K2 (Homo sapiens, UniProt P49137)
Assay: MAPKAP-Kinase 2 Assay (33P-ATP peptide phosphorylation, filter plate)
Format: biochemical
Set-up: key: +: active; ++: more active; +++: very active
Conditions: assays conducted at typically 1-100 μM
Description: MAPKAP-Kinase 2 Assay [Compound Preparation]
Compounds are dissolved in DMSO at a concentration of 3 mM and stored in aliquots at −20° C. Compounds in DMSO from these stock aliquots are diluted in 30% DMSO to produce initial working stock solutions of 1 mM and 3 mM. Both of these stock solutions are then subjected to 1:10 serial dilutions in 30% DMSO in order to prepare 3000, 1000, 300, 100, 30, 10, 3, 1, 0.1, 0.01 μM stock solutions. 5 μl of each stock solution is used per 50 μl reaction to give final assay concentrations of 300, 100, 30, 10, 3, 1, 0.3, 0.1, 0.01, 0.001 μM.
The kinase reaction is conducted in a round-bottomed polypropylene 96-well plate. MAPKAP-K2 is diluted to 25 mU/μl in diluent buffer (50 mM Tris/HCl. pH7.5, 0.1 mM EGTA, 0.1% (v/v) β-mercaptoethanol, 1 mg/ml BSA). 5 μl compound or 30% DMSO is added to each well followed by 25 μl substrate cocktail (10 μM ATP, 30 μM peptide (KKLNRTLSVA), 0.5 μCi ^33P-γ-ATP in 50 mM Tris pH7.5, 0.1 mM EGTA, 10 mM Mg-acetate, 0.1% BME). The reaction is initiated with the addition of 20 μl enzyme solution per well or 20 μl diluent buffer without enzyme. The plate is shaken for 10 sec and then left at room temperature for 30 min. The reaction is terminated with 50 μl 150 mM phosphoric acid. 90 μl of the reaction mixture is then transferred into a 96-well P81 filter plate (Millipore) and incubated at room temperature for 5 min. The filter plate is then washed 4 times with 200 μl 75 mM phosphoric acid per well on a plate vacuum manifold (Millipore) and dried in an oven for 2-3 h. Packard MicroScint ‘0’ (30 μl) is then added to each well, the plate is mixed for 30 min and subjected to liquid scintillation counting on a Packard TopCount.
[Interpretation] %Control=(X−B)/(Tot−B)×100 %Inhibition=100−% Control X=cpm of the test compound wells B=cpm of wells without enzyme Tot=cpm of wells with DMSO vehicle only

MAPKAP-K2, sequence (P49137 whole entry): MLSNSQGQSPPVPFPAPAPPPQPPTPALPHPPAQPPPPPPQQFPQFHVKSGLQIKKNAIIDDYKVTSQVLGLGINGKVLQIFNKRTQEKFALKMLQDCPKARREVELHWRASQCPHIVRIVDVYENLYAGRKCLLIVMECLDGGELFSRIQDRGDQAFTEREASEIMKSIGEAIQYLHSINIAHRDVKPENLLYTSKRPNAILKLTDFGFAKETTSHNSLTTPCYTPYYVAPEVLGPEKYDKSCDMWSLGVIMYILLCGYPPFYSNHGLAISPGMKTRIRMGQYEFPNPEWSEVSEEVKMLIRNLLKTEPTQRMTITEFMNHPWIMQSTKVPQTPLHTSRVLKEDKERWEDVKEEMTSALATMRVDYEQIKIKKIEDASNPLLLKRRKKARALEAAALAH

SMILES | MAPKAP-K2 activity
N[C@H]1CC[C@H](Nc2cc(NCc3ccc(F)c(Cl)c3)n3nccc3n2)CC1 [Compound 1] | ++
N[C@H]1CC[C@H](Nc2cc(Nc3ccc(F)c(Cl)c3)n3nccc3n2)CC1 [Compound 2] | +++
N[C@H]1CC[C@H](Nc2cc(Nc3ccc(Cl)c(Cl)c3)n3nccc3n2)CC1 [Compound 3] | +++
N[C@H]1CC[C@H](Nc2cc(Nc3ccc4c(c3)OC(F)(F)O4)n3nccc3n2)CC1 [Compound 4] | ++
COc1ccc(Nc2cc(N[C@H]3CC[C@H](N)CC3)nc3ccnn23)cc1Cl [Compound 5] | +++
Cc1ccc(Nc2cc(N[C@H]3CC[C@H](N)CC3)nc3ccnn23)cc1Cl [Compound 6] | +++
Cc1ccsc1CNc1cc(N[C@H]2CC[C@H](N)CC2)nc2ccnn12 [Compound 7] | ++
N[C@H]1CC[C@H](Nc2cc(NCc3cccc(Cl)c3)n3nccc3n2)CC1 [Compound 8] | ++
Cc1ccccc1Nc1cc(N[C@H]2CC[C@H](N)CC2)nc2ccnn12 [Compound 9] | +++
N[C@H]1CC[C@H](Nc2cc(Nc3ccccc3)n3nccc3n2)CC1 [Compound 10] | +++
N[C@H]1CC[C@H](Nc2cc(Nc3cccc(Cl)c3)n3nccc3n2)CC1 [Compound 11] | +++
N[C@H]1CC[C@H](Nc2cc(Nc3ccc(Cl)cc3)n3nccc3n2)CC1 [Compound 12] | +++
N[C@H]1CC[C@H](Nc2cc(Nc3ccccc3Cl)n3nccc3n2)CC1 [Compound 13] | +++
N[C@H]1CC[C@H](Nc2cc(NCc3ccc(Cl)cc3)n3nccc3n2)CC1 [Compound 14] | ++
CN(C)c1ccc(Nc2cc(N[C@H]3CC[C@H](N)CC3)nc3ccnn23)cc1 [Compound 15] | +++
N[C@H]1CC[C@H](Nc2cc(Nc3ccc(F)cc3)n3nccc3n2)CC1 [Compound 16] | +++
COc1ccc(Nc2cc(N[C@H]3CC[C@H](N)CC3)nc3ccnn23)cc1 [Compound 17] | +++
N[C@H]1CC[C@H](Nc2cc(Nc3ccc(F)c(Cl)c3)n3nccc3n2)CC1 [Compound 18] | +
CN(C)c1cccc(Nc2cc(N[C@H]3CC[C@H](N)CC3)nc3ccnn23)c1 [Compound 19] | +++
N[C@H]1CC[C@H](Nc2cc(Nc3ccc(C(F)(F)F)cc3)n3nccc3n2)CC1 [Compound 20] | +++
N[C@H]1CC[C@H](Nc2cc(Nc3ccc(Oc4ccccc4)cc3)n3nccc3n2)CC1 [Compound 21] | +++
N[C@H]1CC[C@H](Nc2cc(Nc3ccc(F)cc3F)n3nccc3n2)CC1 [Compound 22] | +++
CC(Nc1cc(N[C@H]2CC[C@H](N)CC2)nc2ccnn12)c1ccccc1 (stereo partly shown) [Compound 23] | +
CC(Nc1cc(N[C@H]2CC[C@H](N)CC2)nc2ccnn12)c1ccc(F)cc1 (stereo partly shown) [Compound 24] | +

SMILES | MAPKAP-K2 activity
CC(=O)NC1CCC(Nc2cc(Nc3ccc(F)c(Cl)c3)n3nccc3n2)CC1 (stereo not shown) [Compound 25] | +
CSc1ccc(Nc2cc(N[C@H]3CC[C@H](N)CC3)nc3ccnn23)cc1 [Compound 26] | +++
CS(=O)(=O)NC1CCC(Nc2cc(Nc3ccc(F)c(Cl)c3)n3nccc3n2)CC1 (stereo not shown) [Compound 27] | +
O=C(NC1CCC(Nc2cc(Nc3ccc(F)c(Cl)c3)n3nccc3n2)CC1)c1ccccc1 (stereo not shown) [Compound 28] | +
NC1CCC(Nc2cc(NCCc3ccccc3)n3nccc3n2)CC1 (stereo not shown) [Compound 29] | ++
NC1CCC(Nc2cc(NCCOc3ccccc3)n3nccc3n2)CC1 (stereo not shown) [Compound 31] | +
N#Cc1cccc(Nc2cc(NC3CCC(N)CC3)nc3ccnn23)c1 (stereo not shown) [Compound 32] | +++
CC(C)(C)c1ccc(Nc2cc(NC3CCC(N)CC3)nc3ccnn23)cc1 (stereo not shown) [Compound 34] | ++
CCOc1ccc(Nc2cc(NC3CCC(N)CC3)nc3ccnn23)cc1 (stereo not shown) [Compound 35] | +++
CCCc1ccc(Nc2cc(NC3CCC(N)CC3)nc3ccnn23)cc1 (stereo not shown) [Compound 36] | +++
CC(C)c1ccc(Nc2cc(NC3CCC(N)CC3)nc3ccnn23)cc1 (stereo not shown) [Compound 37] | +++
CNC(=O)NC1CCC(Nc2cc(Nc3ccc(F)c(Cl)c3)n3nccc3n2)CC1 (stereo not shown) [Compound 38] | +
NC1CCC(Nc2cc(NCc3ccc(Cl)c(Cl)c3)n3nccc3n2)CC1 (stereo not shown) [Compound 39] | ++
NC1CCC(Nc2cc(Nc3cccc(I)c3)n3nccc3n2)CC1 (stereo not shown) [Compound 40] | +++
NC1CCC(Nc2cc(Nc3ccc(Oc4ccc(Cl)cc4)cc3)n3nccc3n2)CC1 (stereo not shown) [Compound 41] | +++
NC1CCC(Nc2cc(Nc3ccc(Oc4cccc(C(F)(F)F)c4)cc3)n3nccc3n2)CC1 (stereo not shown) [Compound 42] | +++
Cc1ccc(Nc2cc(NC3CCC(N)CC3)nc3ccnn23)cc1C (stereo not shown) [Compound 43] | +++
Cc1cccc(Nc2cc(NC3CCC(N)CC3)nc3ccnn23)c1 (stereo not shown) [Compound 44] | +++
Cc1cccc(C)c1Nc1cc(NC2CCC(N)CC2)nc2ccnn12 (stereo not shown) [Compound 45] | ++
NC1CCC(Nc2cc(Nc3cccc(Oc4ccccc4)c3)n3nccc3n2)CC1 (stereo not shown) [Compound 46] | +++
COc1ccccc1Nc1cc(NC2CCC(N)CC2)nc2ccnn12 (stereo not shown) [Compound 47] | ++
C=CCNc1cc(NC2CCC(N)CC2)nc2ccnn12 (stereo not shown) [Compound 48] | ++
O=C(Nc1ccccc1)NC1CCC(Nc2cc(Nc3ccc(F)c(Cl)c3)n3nccc3n2)CC1 (stereo not shown) [Compound 49] | +
CN1CCN(Nc2cc(Nc3ccc(F)c(Cl)c3)n3nccc3n2)CC1 [Compound 50] | +

SMILES | MAPKAP-K2 activity
NC1CCC(Nc2cc(Nc3ccc4c(c3)OCO4)n3nccc3n2)CC1 (stereo not shown) [Compound 51] | +++
NC1CCC(Nc2cc(Nc3ccc(OCc4ccccc4)cc3)n3nccc3n2)CC1 (stereo not shown) [Compound 52] | +++
NC1CCC(Nc2cc(NCc3cccc(I)c3)n3nccc3n2)CC1 (stereo not shown) [Compound 53] | ++
CCOc1ccccc1Nc1cc(NC2CCC(N)CC2)nc2ccnn12 (stereo not shown) [Compound 54] | ++
NC1CCC(Nc2cc(Nc3ccc4c(c3)OC(F)(F)O4)n3nccc3n2)CC1 (stereo not shown) [Compound 55] | ++
CN1CCC(Nc2cc(Nc3ccc(F)c(Cl)c3)n3nccc3n2)CC1 [Compound 56] | ++
CNC(=S)N[C@H]1CC[C@H](Nc2cc(Nc3ccc(F)c(Cl)c3)n3nccc3n2)CC1 [Compound 57] | +
C=C(C)CNc1cc(NC2CCC(N)CC2)nc2ccnn12 (stereo not shown) [Compound 58] | +++
C#CCNc1cc(NC2CCC(N)CC2)nc2ccnn12 (stereo not shown) [Compound 59] | +++
N[C@H]1CC[C@H](Nc2cc(Nc3ccc(Cl)cc3Cl)n3nccc3n2)CC1 [Compound 60] | +++
NC1CCCC(Nc2cc(Nc3ccc(F)c(Cl)c3)n3nccc3n2)C1 (stereo not shown) [Compound 61] | +
COc1cccc(Nc2cc(N[C@H]3CC[C@H](N)CC3)nc3ccnn23)c1 [Compound 62] | +++
N[C@H]1CC[C@H](Nc2cc(Nc3cccc(OC(F)(F)F)c3)n3nccc3n2)CC1 [Compound 63] | +++
N[C@H]1CC[C@H](Nc2cc(Nc3cccc(OCc4ccccc4)c3)n3nccc3n2)CC1 [Compound 64] | +++
CCOc1cccc(Nc2cc(N[C@H]3CC[C@H](N)CC3)nc3ccnn23)c1 [Compound 65] | +++
N[C@H]1CC[C@H](Nc2cc(Nc3ccccc3F)n3nccc3n2)CC1 [Compound 66] | +++
N[C@H]1CC[C@H](Nc2cc(Nc3cccc(Cl)c3Cl)n3nccc3n2)CC1 [Compound 67] | +++
N[C@H]1CC[C@H](Nc2cc(Nc3cc(Cl)ccc3Cl)n3nccc3n2)CC1 [Compound 68] | +++
N[C@H]1CC[C@H](Nc2cc(Nc3c(Cl)cccc3Cl)n3nccc3n2)CC1 [Compound 69] | +++
N[C@H]1CC[C@H](Nc2cc(Nc3ccc(O)cc3)n3nccc3n2)CC1 [Compound 70] | +++
N[C@H]1CC[C@H](Nc2cc(NCc3ccccc3Cl)n3nccc3n2)CC1 [Compound 71] | ++
NC1CCCN(c2cc(Nc3ccc(F)c(Cl)c3)n3nccc3n2)C1 (stereo not shown) [Compound 72] | ++
